According to ChEMBL document CHEMBL4251615, “Discovery of anilino-furo[2,3-d]pyrimidine derivatives as dual inhibitors of EGFR/HER2 tyrosine kinase and their anticancer activity” (Eur J Med Chem, 2018):

The compounds below were run on NCI-H522 (assay: Growth inhibition of human NCI-H522 cells assessed as cell growth at 10 uM incubated for 48 hrs by sulforhodamine B assay relative to control). Details: NCI-H522, 48 h, read-out: Activity.
Format: functional
Work on `CCCNC(=O)c1c(C)oc2ncnc(Nc3cccc(Cl)c3)c12` yielded a growth at 10 µM of 54.9%.

These compounds were tested on 786-0 (assay: Growth inhibition of human 786-0 cells assessed as cell growth at 10 uM incubated for 48 hrs by sulforhodamine B assay relative to control). Details: 786-0, 48 h, read-out: Activity.
Format: functional
With `CCCNC(=O)c1c(C)oc2ncnc(Nc3cccc(Cl)c3)c12` the growth at 10 µM was 105%.

These compounds were tested on HT-29 (assay: Growth inhibition of human HT-29 cells assessed as cell growth at 10 uM incubated for 48 hrs by sulforhodamine B assay relative to control). Details: HT-29, 48 h, read-out: Activity.
Format: functional
`CCCNC(=O)c1c(C)oc2ncnc(Nc3cccc(Cl)c3)c12` gave a growth at 10 µM of 93.8%.

These compounds were tested on BT-549 (assay: Growth inhibition of human BT549 cells assessed as cell growth at 10 uM incubated for 48 hrs by sulforhodamine B assay relative to control). Details: BT-549, 48 h, read-out: Activity.
Format: functional
For `CCCNC(=O)c1c(C)oc2ncnc(Nc3cccc(Cl)c3)c12`, the growth at 10 µM was 102%.

What follows are compounds tested on OVCAR-4 (assay: Growth inhibition of human OVCAR4 cells assessed as cell growth at 10 uM incubated for 48 hrs by sulforhodamine B assay relative to control). Details: OVCAR-4, 48 h, read-out: Activity.
Format: functional
`CCCNC(=O)c1c(C)oc2ncnc(Nc3cccc(Cl)c3)c12` showed a growth at 10 µM of 101%.

The compounds below were run on SK-MEL-2 (assay: Growth inhibition of human SK-MEL-2 cells assessed as cell growth at 10 uM incubated for 48 hrs by sulforhodamine B assay relative to control). Details: SK-MEL-2, 48 h, read-out: Activity.
Format: functional
Work on `CCCNC(=O)c1c(C)oc2ncnc(Nc3cccc(Cl)c3)c12` yielded a growth at 10 µM of 85.6%.

These compounds were tested on TK-10 (assay: Growth inhibition of human TK10 cells assessed as cell growth at 10 uM incubated for 48 hrs by sulforhodamine B assay relative to control). Details: TK-10, 48 h, read-out: Activity.
Format: functional
Compound `CCCNC(=O)c1c(C)oc2ncnc(Nc3cccc(Cl)c3)c12` has a growth at 10 µM of 94.1%.

These compounds were tested on SF-268 (assay: Growth inhibition of human SF268 cells assessed as cell growth at 10 uM incubated for 48 hrs by sulforhodamine B assay relative to control). Details: SF-268, 48 h, read-out: Activity.
Format: functional
For `CCCNC(=O)c1c(C)oc2ncnc(Nc3cccc(Cl)c3)c12`, the growth at 10 µM was 95.5%.

These compounds were tested on A549 (assay: Growth inhibition of human A549/ATCC cells assessed as cell growth at 10 uM incubated for 48 hrs by sulforhodamine B assay relative to control). Details: A549, 48 h, read-out: Activity.
Format: functional
`CCCNC(=O)c1c(C)oc2ncnc(Nc3cccc(Cl)c3)c12` showed a growth at 10 µM of 82.7%.

These compounds were tested on NCI-H23 (assay: Growth inhibition of human NCI-H23 cells assessed as cell growth at 10 uM incubated for 48 hrs by sulforhodamine B assay relative to control). Details: NCI-H23, 48 h, read-out: Activity.
Format: functional
`CCCNC(=O)c1c(C)oc2ncnc(Nc3cccc(Cl)c3)c12` showed a growth at 10 µM of 91.5%.

Each compound was assayed on MDA-MB-468 (assay: Growth inhibition of human MDA-MB-468 cells assessed as cell growth at 10 uM incubated for 48 hrs by sulforhodamine B assay relative to control). Details: MDA-MB-468, 48 h, read-out: Activity.
Format: functional
With `CCCNC(=O)c1c(C)oc2ncnc(Nc3cccc(Cl)c3)c12` the growth at 10 µM was 81.7%.

The compounds below were run on MDA-MB-435 (assay: Growth inhibition of human MDA-MB-435 cells assessed as cell growth at 10 uM incubated for 48 hrs by sulforhodamine B assay relative to control). Details: MDA-MB-435, 48 h, read-out: Activity.
Format: functional
`CCCNC(=O)c1c(C)oc2ncnc(Nc3cccc(Cl)c3)c12` showed a growth at 10 µM of 103%.

What follows are compounds tested on OVCAR-3 (assay: Growth inhibition of human OVCAR3 cells assessed as cell growth at 10 uM incubated for 48 hrs by sulforhodamine B assay relative to control). Details: OVCAR-3, 48 h, read-out: Activity.
Format: functional
For `CCCNC(=O)c1c(C)oc2ncnc(Nc3cccc(Cl)c3)c12`, the growth at 10 µM was 106%.

These compounds were tested on RXF 393 (assay: Growth inhibition of human RXF393 cells assessed as cell growth at 10 uM incubated for 48 hrs by sulforhodamine B assay relative to control). Details: RXF 393, 48 h, read-out: Activity.
Format: functional
In the case of `CCCNC(=O)c1c(C)oc2ncnc(Nc3cccc(Cl)c3)c12`, the growth at 10 µM is reported as 111%.

What follows are compounds tested on SW-620 (assay: Growth inhibition of human SW620 cells assessed as cell growth at 10 uM incubated for 48 hrs by sulforhodamine B assay relative to control). Details: SW-620, 48 h, read-out: Activity.
Format: functional
Compound `CCCNC(=O)c1c(C)oc2ncnc(Nc3cccc(Cl)c3)c12` has a growth at 10 µM of 106%.

What follows are compounds tested on Hs-578T (assay: Growth inhibition of human Hs 578T cells assessed as cell growth at 10 uM incubated for 48 hrs by sulforhodamine B assay relative to control). Details: read-out: Activity.
Format: functional
`CCCNC(=O)c1c(C)oc2ncnc(Nc3cccc(Cl)c3)c12` gave a growth at 10 µM of 104%.

These compounds were tested on HOP-92 (assay: Growth inhibition of human HOP92 cells assessed as cell growth at 10 uM incubated for 48 hrs by sulforhodamine B assay relative to control). Details: HOP-92, 48 h, read-out: Activity.
Format: functional
`CCCNC(=O)c1c(C)oc2ncnc(Nc3cccc(Cl)c3)c12` was tested, and the growth at 10 µM was 57.2%.

Each compound was assayed on ACHN (assay: Growth inhibition of human ACHN cells assessed as cell growth at 10 uM incubated for 48 hrs by sulforhodamine B assay relative to control). Details: read-out: Activity.
Format: functional
Compound `CCCNC(=O)c1c(C)oc2ncnc(Nc3cccc(Cl)c3)c12` has a growth at 10 µM of 107%.

Each compound was assayed on EKVX (assay: Growth inhibition of human EKVX cells assessed as cell growth at 10 uM incubated for 48 hrs by sulforhodamine B assay relative to control). Details: read-out: Activity.
Format: functional
In the case of `CCCNC(=O)c1c(C)oc2ncnc(Nc3cccc(Cl)c3)c12`, the growth at 10 µM is reported as 98.8%.

The compounds below were run on Malme-3M (assay: Growth inhibition of human MALME-3M cells assessed as cell growth at 10 uM incubated for 48 hrs by sulforhodamine B assay relative to control). Details: read-out: Activity.
Format: functional
In the case of `CCCNC(=O)c1c(C)oc2ncnc(Nc3cccc(Cl)c3)c12`, the growth at 10 µM is reported as 121%.

The compounds below were run on NCI-H322M (assay: Growth inhibition of human NCI-H322M cells assessed as cell growth at 10 uM incubated for 48 hrs by sulforhodamine B assay relative to control). Details: read-out: Activity.
Format: functional
`CCCNC(=O)c1c(C)oc2ncnc(Nc3cccc(Cl)c3)c12` gave a growth at 10 µM of 103%.

Each compound was assayed on SNB-19 (assay: Growth inhibition of human SNB19 cells assessed as cell growth at 10 uM incubated for 48 hrs by sulforhodamine B assay relative to control). Details: SNB-19, 48 h, read-out: Activity.
Format: functional
With `CCCNC(=O)c1c(C)oc2ncnc(Nc3cccc(Cl)c3)c12` the growth at 10 µM was 106%.

The compounds below were run on U-251 (assay: Growth inhibition of human U251 cells assessed as cell growth at 10 uM incubated for 48 hrs by sulforhodamine B assay relative to control). Details: U-251, 48 h, read-out: Activity.
Format: functional
Compound `CCCNC(=O)c1c(C)oc2ncnc(Nc3cccc(Cl)c3)c12` has a growth at 10 µM of 90.9%.

Each compound was assayed on SF-295 (assay: Growth inhibition of human SF295 cells assessed as cell growth at 10 uM incubated for 48 hrs by sulforhodamine B assay relative to control). Details: SF-295, 48 h, read-out: Activity.
Format: functional
For `CCCNC(=O)c1c(C)oc2ncnc(Nc3cccc(Cl)c3)c12`, the growth at 10 µM was 90.1%.

What follows are compounds tested on PC-3 (assay: Growth inhibition of human PC3 cells assessed as cell growth at 10 uM incubated for 48 hrs by sulforhodamine B assay relative to control). Details: PC-3, 48 h, read-out: Activity.
Format: functional
In the case of `CCCNC(=O)c1c(C)oc2ncnc(Nc3cccc(Cl)c3)c12`, the growth at 10 µM is reported as 81.9%.

Each compound was assayed on HCC 2998 (assay: Growth inhibition of human HCC2998 cells assessed as cell growth at 10 uM incubated for 48 hrs by sulforhodamine B assay relative to control). Details: HCC 2998, 48 h, read-out: Activity.
Format: functional
`CCCNC(=O)c1c(C)oc2ncnc(Nc3cccc(Cl)c3)c12` was tested, and the growth at 10 µM was 123%.

What follows are compounds tested on HCT-116 (assay: Growth inhibition of human HCT116 cells assessed as cell growth at 10 uM incubated for 48 hrs by sulforhodamine B assay relative to control). Details: HCT-116, 48 h, read-out: Activity.
Format: functional
In the case of `CCCNC(=O)c1c(C)oc2ncnc(Nc3cccc(Cl)c3)c12`, the growth at 10 µM is reported as 105%.

Each compound was assayed on RPMI-8226 (assay: Growth inhibition of human RPMI8226 cells assessed as cell growth at 10 uM incubated for 48 hrs by sulforhodamine B assay relative to control). Details: RPMI-8226, 48 h, read-out: Activity.
Format: functional
For `CCCNC(=O)c1c(C)oc2ncnc(Nc3cccc(Cl)c3)c12`, the growth at 10 µM was 95.4%.

What follows are compounds tested on MCF7 (assay: Growth inhibition of human MCF7 cells assessed as cell growth at 10 uM incubated for 48 hrs by sulforhodamine B assay relative to control). Details: MCF7, 48 h, read-out: Activity.
Format: functional
In the case of `CCCNC(=O)c1c(C)oc2ncnc(Nc3cccc(Cl)c3)c12`, the growth at 10 µM is reported as 93.5%.

The compounds below were run on MDA-MB-231 (assay: Growth inhibition of human MDA-MB-231 cells assessed as cell growth at 10 uM incubated for 48 hrs by sulforhodamine B assay relative to control). Details: MDA-MB-231, 48 h, read-out: Activity.
Format: functional
Compound `CCCNC(=O)c1c(C)oc2ncnc(Nc3cccc(Cl)c3)c12` has a growth at 10 µM of 88.2%.

The compounds below were run on HL-60(TB) (assay: Growth inhibition of human HL-60(TB) cells assessed as cell growth at 10 uM incubated for 48 hrs by sulforhodamine B assay relative to control). Details: HL-60, 48 h, read-out: Activity.
Format: functional
For `CCCNC(=O)c1c(C)oc2ncnc(Nc3cccc(Cl)c3)c12`, the growth at 10 µM was 96.3%.

Each compound was assayed on SN12C (assay: Growth inhibition of human SN12C cells assessed as cell growth at 10 uM incubated for 48 hrs by sulforhodamine B assay relative to control). Details: read-out: Activity.
Format: functional
With `CCCNC(=O)c1c(C)oc2ncnc(Nc3cccc(Cl)c3)c12` the growth at 10 µM was 99.4%.

What follows are compounds tested on MOLT-4 (assay: Growth inhibition of human MOLT4 cells assessed as cell growth at 10 uM incubated for 48 hrs by sulforhodamine B assay relative to control). Details: MOLT-4, 48 h, read-out: Activity.
Format: functional
Compound `CCCNC(=O)c1c(C)oc2ncnc(Nc3cccc(Cl)c3)c12` has a growth at 10 µM of 95.4%.
